Consider 2 molecules from patent US12414566B2, “Safener containing herbicidal oil dispersion” (ARYSTA LIFESCIENCE INC, priority 2017, dated 2025).

The structures appear in SMILES notation. Read-outs that look alike come from different tables or passages of the source.

The data set can be described thus: Chemical stability in butyl benzoate. The format is physicochemical.

Take `COc1nn(C(=O)[N-]S(=O)(=O)c2ccccc2OC(F)(F)F)c(=O)n1C.[Na+]` [Flucarbazone sodium]: the “chemical stability in the butyl benzoate” value was “chemically stable”. Consider `CC(Oc1ccc(Oc2nc3ccc(Cl)cc3o2)cc1)C(=O)O` (centres unmarked) [fenoxaprop], for which, for the setting “room temperature or accelerated temperature”, the “chemical stability in the butyl benzoate” value was “chemically stable”.
